The values that follow come from ChEMBL document CHEMBL3244023, “A structure-carcinogenicity study of 4-nitroquinoline 1-oxides using the SIMCA method of pattern recognition” (J Med Chem, 1978).

SMILES strings stand for the structures.

The nature of data set [1]: Lipophilicy, log P of the compound. The class given is physicochemical. The conditions noted are these: octanol/water.
In data set [2] the test system is Mus musculus. As to the kind of experiment: Carcinogenicity in mouse assessed as tumor development administered sc in left groin 6 times at 10-day interval. The note with it: in vivo. The class given is toxicity, organism-based.

For the molecule `CC(C)(C)c1ccc2c(c1)c([N+](=O)[O-])cc[n+]2[O-]`, the log partition coefficient (logP) in data set [1] came to 3.06.

On to `Cc1ccc2c([N+](=O)[O-])cc[n+]([O-])c2c1`, for which the Activity result in data set [2] is recorded as “Toxic”. This molecule returned a logP in data set [1] of 1.49. The matching figures for `O=[N+]([O-])c1cc[n+]([O-])c2cc(Cl)ccc12`: “Toxic” and 1.75. In turn, `O=[N+]([O-])c1cc[n+]([O-])c2c(F)cccc12` yielded a lipophilicity (logP) in data set [1] of 1. Take `Cc1cc([N+](=O)[O-])c2ccccc2[n+]1[O-]`: the Activity entry in data set [2] was “Toxic”. For the same molecule, in data set [1], the logP is 1.25.

As to `O=[N+]([O-])c1c(F)c[n+]([O-])c2ccccc12`, in data set [1], the log partition coefficient (logP) is 1.25. Molecule `O=C(O)c1ccc2c(c1)c([N+](=O)[O-])cc[n+]2[O-]` yielded a logP in data set [1] of 0.42.

Molecule `O=[N+]([O-])c1c(Cl)c[n+]([O-])c2ccccc12` showed a logP in data set [1] of 1.33. Take `CC(C)(C)c1ccc2c(c1)c(NO)cc[n+]2[O-]`: in data set [2], the Activity result is “Non-toxic”. This molecule gave a lipophilicity (logP) in data set [1] of 2.05.

As to `O=[N+]([O-])c1cc[n+]([O-])c2ccc(Cl)cc12`, in data set [2], the Activity entry is recorded as “Toxic”. For the same molecule, in data set [1], the logP amounted to 1.4. The matching figures for `CCCCCCc1ccc2c(c1)c([N+](=O)[O-])cc[n+]2[O-]`: “Non-toxic” and 3.26. The like results for `Cc1cccc2c1c([N+](=O)[O-])cc[n+]2[O-]` were, in that order, “Toxic” and 1.25. On to `CC(C)(C)c1cc([N+](=O)[O-])c2ccccc2[n+]1[O-]`, for which, in data set [1], the logP turned out to be 1.07. `CCc1cc([N+](=O)[O-])c2ccccc2[n+]1[O-]`: the Activity entry in data set [2] is “Toxic”. Moreover, the log partition coefficient (logP) in data set [1] came to 1.76.

For the molecule `O=[N+]([O-])c1ccc2c(c1)c(NO)cc[n+]2[O-]`, the Activity entry in data set [2] is “Toxic”. Besides, in data set [1], the log partition coefficient (logP) is -0.28.

In the case of `O=[N+]([O-])c1cc[n+]([O-])c2ccc(C3CCCCC3)cc12`, the Activity entry in data set [2] is reported as “Non-toxic”. For the same molecule, the logP in data set [1] was 2.8. The matching figures for `Cc1ccc2c(c1)c([N+](=O)[O-])cc[n+]2[O-]`: “Toxic” and 1.24. For the molecule `COc1c[n+]([O-])c2ccccc2c1[N+](=O)[O-]`, the Activity entry in data set [2] is given as “Non-toxic”. Moreover, the lipophilicity (logP) in data set [1] amounted to 0.43.

The molecule `Cc1c[n+]([O-])c2ccccc2c1[N+](=O)[O-]` showed a logP in data set [1] of 1.24.

As to `[O-][n+]1ccc(NO)c2cc(C3CCCCC3)ccc21`, the Activity entry in data set [2] is recorded as “Non-toxic”. Moreover, in data set [1], the logP was 2.89.

In data set [1], `O=[N+]([O-])c1cccc2c1c([N+](=O)[O-])cc[n+]2[O-]` registered a logP of 0.95.

Regarding `O=[N+]([O-])c1cc[n+]([O-])c2ccccc12` [4-NITROQUINOLINE-1-OXIDE], the Activity result in data set [2] is on record as “Toxic”. Also, the logP in data set [1] stood at 1.01. The like results for `CCCCc1ccc2c(c1)c([N+](=O)[O-])cc[n+]2[O-]` were, in that order, “Toxic” and 3.11. The matching figures for `O=[N+]([O-])c1c(Br)c[n+]([O-])c2ccccc12`: “Toxic” and 1.99. The matching figures for `CCCCCCc1ccc2c(c1)c(NO)cc[n+]2[O-]`: “Non-toxic” and 3.35.

As for `O=[N+]([O-])c1ccc2c([N+](=O)[O-])cc[n+]([O-])c2c1`, the Activity entry in data set [2] is recorded as “Non-toxic”. The molecule also had a logP in data set [1] of 0.45.

For the molecule `Cc1cccc2c([N+](=O)[O-])cc[n+]([O-])c12`, in data set [2], the Activity entry is listed as “Toxic”. Besides, the logP in data set [1] worked out at 1.48.

Turning to `O=[N+]([O-])c1ccc2c(c1)c([N+](=O)[O-])cc[n+]2[O-]`, the logP in data set [1] is 0.9. For the molecule `O=[N+]([O-])c1cc[n+]([O-])c2cc(Cl)c(Cl)cc12`, the Activity result in data set [2] was “Toxic”. This molecule returned a log partition coefficient (logP) in data set [1] of 2.49. The matching figures for `CCCCc1ccc2c(c1)c(NO)cc[n+]2[O-]`: “Toxic” and 2.1. The like results for `O=[N+]([O-])c1cc[n+]([O-])c2c([N+](=O)[O-])cccc12` were, in that order, “Non-toxic” and 0.76.

With `O=[N+]([O-])c1cc[n+]([O-])c2cccc(Cl)c12`, the Activity entry in data set [2] is listed as “Toxic”. The logP in data set [1] came to 1.75. In data set [1], `CCc1c(C)c([N+](=O)[O-])c2ccccc2[n+]1[O-]` returned a logP of 2.56.
